Reference: publication PMC12392461, “Beyond Estrogenicity: A Comparative Assessment of Bisphenol A and Its Alternatives in In Vitro Assays Questions Safety of Replacements” (Environmental Science & Technology, 2025)
Read-outs that look alike come from different tables or passages of the source.

Experiments:
[1] = test system: HEK293H, HEK293T, H4IIe, MCF7 and SH-SY5Y cells; conditions: for cytotoxicity,median REPBPA,IC10: median IC10 relative to BPA; for IC10,Median (M): median cytotoxicity of all cell lines; for IC10, median: median cytotoxicity over all cell lines
Procedure: Cell culture conditions and bioassay protocols including response detection are provided in Text S2.1–2.4 and Table S3. − Cell viability was determined from cell confluency using an IncuCyte S3 Live-Cell Analysis System (Sartorius AG, Essen, Germany) before and after exposure, except for SH-SY5Y cells (live–dead staining with Nuclear Green LcS1 and propidium iodide, Abcam, UK). For metabolic activation experiments, cell viability was assessed using the ToxBLAzer DualScreen Kit (Thermo Fisher Scientific) to capture the remaining toxicity in ERα-UAS-bla GripTite after treatment with the aCYP catalyst (details in Text S2.4).
For ARE, the concentration that triggered an induction ratio of 1.5 (ECIR1.5) was used as the benchmark value, as detailed in Text S2.5. IC10 values also served as a threshold for data analysis in all assays; only concentrations below IC10 were considered when deriving EC10 or ECIR1.5.
TR indicates whether the cytotoxicity is triggered by specific toxicity mechanisms (TR ≥ 10) or not (0.1< TR< 10). 3 TR=IC10,baseline/IC10 We measured the cytotoxicity of BPA and its alternatives in HEK293H (PPARγ), HEK293T (ERα), H4IIe (AhR CALUX), MCF7 (ARE/MMP), and differentiated SH-SY5Y cells (Table S6). […]
medium, supplemented with 2% B-27 Supplement and 2 mM GlutaMAX Supplement. SH - SY5Y cells were differentiated with 10 µM all-trans retinoic acid prior to the assay.
S2.2: Cell Seeding and Incubation. For all bioassays, cell suspensions in the respective assay medium were dispensed into each well of 384-well plates using a MultiFlo Dispenser (Biotek, (now Agilent), Winooski, VT, U.S.). After seeding, the plates were incubated at 37° C and 5% CO₂ for […]. The final cell densities and plate types were as follows: Black poly-D-lysine […]
6500 cells/well, ERα: 5000 cells/well. White 384-well plates with a clear bottom (Product No.
NYC, U.S.) for AhR: 3250 cells/well. Black Collagen I coated plates were used (Product No.
S2.3: Chemical Dosing and Assay Analysis Procedures. The dosing procedure and high-throughput assay workflow have been described in detail before. 9 The dosing concentrations […]
Stock solutions were then either added directly to the respective cell culture medium or evaporated under nitrogen, followed by replenishment with fresh medium. The final solvent content in each well was kept below 1% for methanol, 0% for acetonitrile.
Dosing plates were prepared as 11 -step serial dilutions using a Hamilton Microlab Star robotic system (Hamilton, Bonaduz, Switzerland), and chemicals were dosed in duplicates by transferring 10 μL twice from the dosing plates to the cell plates . After quantifying cell confluency as described in S2. 4., the exposed cells were incubated at 37° C and 5% CO₂ for an additional 24 h. All chemicals were tested in all assays with at least three independent […]
S2.4: Cell Viability Measurement s and bioanalytical protocols . The confluency as a measure of cell viability was determined with an IncuCyte S3 Live -Cell Analysis System (Sartorius AG, Essen, Germany). With this method the confluency of cells in a microscopy image are normalized to control wells without cells and compared before and after 24 hours of exposure.
This method has been described previously 13. Cell viability of SH-SY5Y cells was measured […]
propidium iodide (PI, Abcam, Cambridge, U.K.).14 Nuclear Green LCS1 is a membrane-permeable dye that stains the nuclei of all cells, whereas PI only enters cells with compromised membrane integrity (non-viable cells). After staining, live cells show green nuclei without red fluorescence, while dead cells display both green and red nuclear fluorescence due to PI […]
intercalation. Cell viability was calculated as the proportion of green-only nuclei relative to the […]
For experiments with the preceding aCYP activation, ERα cell viability was additionally calculated from the readout of the ToxBLAzer reagent. The ToxBLAzer assay was conducted following the manufacturer's instructions (Thermo Fisher, Waltham, MA, U.S.).13 Fluorescence

[2] = Abiotic CYP (aCYP) oxidation, remaining parent compound (Cparent-Ratio); conditions: for Cparent-Ratio Rep.1 %: Table S9, replicate 1; for Cparent-Ratio Rep.2 %: Table S9, replicate 2
[3] = 15 min
ERα = conditions: ref Pelch et al 2019; cited from earlier work
[4] = Octanol-water partition constant (log Kow) measurement, Sirius T3 potentiometric log P; type: physicochemical; conditions: experimental, this study
Procedure: Physicochemical properties provide input parameters for the baseline toxicity model. Acidity constants (pK a) and octanol–water partition constants of the neutral species (K ow) were measured with a Sirius T instrument from Pion Inc. (Sussex, UK) (Text S1.2 and Table S1). A detailed description of the pK a and K ow measurements can be found in literature. , […]
S1.2: pKa and log Kow measurements […]
titrator (Pion Inc., Sussex, U.K.). […]
UV absorbance. For log Kow measurement, approximately 1 mg of test chemical was added to a sample vial and the measurement was done automatically via the potentiometric log P protocol. Briefly, each compound is titrated thrice in an immiscible biphasic system of octanol and phosphate buffer solution and pH is continuously recorded. The shift in p Ka -values was used to estimate the log Kow values.2, 3 Data processing was performed with Sirius T3 Refine software (version 2.0.0.0.), and the final p Ka and log Kow values were calculated as the average of three titrations. To ensure reproducibility, measurements were conducted on at least two

Tox21 assays [5] = conditions: cited from earlier work
Tox21 assays [6] = assay: Re-evaluated Tox21 data (Adamovsky et al.), REPBPA and SRbaseline; conditions: for SRbaseline: Specificity Ratio;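 for all read-outs here: published Tox21 results reanalysed with a revised model predicting baseline toxicity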
Excerpt: We also reanalyzed the Tox21 data of Adamovsky et al. with the updated baseline toxicity prediction model (Table S2).

[7] = Table S9, loss of parent after aCYP oxidation
[8] = Table S9, mean of two replicate experiments
[9] = Table S9, replicate 1, as fraction
[10] = Table S9, replicate 2, as fraction
[11] = Table S11, measured simultaneously with bioassay
[12] = TOX21_PPARg_BLA_antagonist_ratio, re-evaluated Tox21 data, ref Adamovsky et al 2024
[13] = Tox21Luc, ref Adamovsky et al. 2024
[14] = TOX21_PPARg_BLA_antagonist_ratio
[15] = ATG_PPARg_TRANS_up, re-evaluated Tox21 data, ref Adamovsky et al 2024
[16] = ATG_hPPARg_XSP2_up, re-evaluated Tox21 data, ref Adamovsky et al 2024

SMILES	cytotoxicity,median REPBPA,IC10 [1]	IC10,Median (M) [1]	IC10, median [1]	% Loss [2, 7]	Cparent-Ratio Mean [2, 8]	Cparent-Ratio Rep.1 % [2]	Cparent-Ratio Rep.1 [2, 9]	Cparent-Ratio Rep.2 % [2]	Cparent-Ratio Rep.2 [2, 10]	% Loss ([2]; Table S11)	also measured
CC1(C)C(O)C(C)(C)C1O (racemic) [r-TMCD, 2,2,4,4-Tetramethyl-1,3-cyclobutanediol (racemate)]	0.00844	8.29 × 10^–3 M	8290 µM	1.72%	0.98	94.58%	0.95	101.99%	1.02		
CC(C)(c1ccc(OCC2CO2)cc1)c1ccc(OCC2CO2)cc1 (stereo not drawn) [BADGE, Bisphenol A diglycidyl ether]	1.82	3.85 × 10^–5 M	38.5 µM								% Loss [3]: -5%; Cparent-Ratio Mean [3]: 1.05; Cparent-Ratio Rep.1 [3]: 1.07; Cparent-Ratio Rep.1 % [3]: 107.02%; Cparent-Ratio Rep.2 [3]: 1.03; Cparent-Ratio Rep.2 % [3]: 103.48%
CC(C)CC(C)(c1ccc(O)cc1)c1ccc(O)cc1 [BP-MIBK, 4,4'-(1,3-Dimethylbutylidene)diphenol]											% Loss [3]: 10%
CC(C)c1cc(C(C)(C)c2ccc(O)c(C(C)C)c2)ccc1O [BPG, 2,2-Bis(4-hydroxy-3-isopropylphenyl)propane]	8.93	7.84 × 10^–6 M	7.84 µM	15%	0.85	67.85%	0.68	102.05%	1.02	34%	Cparent-Ratio Mean [2, 11]: 0.66; Cparent-Ratio Rep.1 [2, 11]: 0.79; Cparent-Ratio Rep.2 [2, 11]: 0.53
CC(C)(c1ccc(O)c(-c2ccccc2)c1)c1ccc(O)c(-c2ccccc2)c1 [BPPH, 2,2-Bis(2-hydroxy-5-biphenylyl)propane]	8.72	8.02 × 10^–6 M	8.02 µM	22%	0.78	89.82%	0.90	66.60%	0.67	22%	Efficacy % (ERα): 27.00%; Cparent-Ratio Mean [2, 11]: 0.78; Cparent-Ratio Rep.1 [2, 11]: 0.78; Cparent-Ratio Rep.2 [2, 11]: 0.78
Oc1ccc(Sc2ccc(O)cc2)cc1 [BPT, 4,4'-Thiodiphenol]	0.74	9.51 × 10^–5 M	95.1 µM	71%						87%	log Kow used [4]: 3.29; EC10 (Tox21 assays [5]; TOX21_AR_LUC_MDAKB2_Antagonist_0,5nM_R1881, re-evaluated Tox21 data, ref Adamovsky et al 2024): 1.43e-06 M; EC10 (Tox21 assays [5]; [12]): 2.66e-06 M; EC10 (Tox21 assays [5]; [13]): 7.19E-08; REPBPA (Tox21 assays [6]; TOX21_AR_LUC_MDAKB2_Antagonist_0,5nM_R1881, Relative Effect Potency): 1.69; SRbaseline (Tox21 assays [6]; TOX21_AR_LUC_MDAKB2_Antagonist_0,5nM_R1881): 66.82; SRbaseline (Tox21 assays [6]; [14]): 35.93; REPBPA (Tox21 assays [6]; [13]): 8.32E-01
COC(=O)C(c1ccc(O)cc1)c1ccc(O)cc1 [Bz, Methyl bis(4-hydroxyphenyl)acetate]	0.19	3.73 × 10^–4 M	373 µM	-7%	1.07	113.92%	1.14	100.34%	1.00		log Kow used [4]: 2.06
CC(C)(c1cc(Br)c(O)c(Br)c1)c1cc(Br)c(O)c(Br)c1 [TBBPA, 3,3',5,5'-Tetrabromobisphenol A]				8%							log Kow used [4]: 5.91; EC10 (Tox21 assays [5]; [15]): 4.64e-07 M; EC10 (Tox21 assays [5]; ATG_hPPARg_XSP1_up, re-evaluated Tox21 data, ref Adamovsky et al 2024): 5.02e-07 M; EC10 (Tox21 assays [5]; [16]): 2e-07 M; EC10 (Tox21 assays [5]; [12]): 6.2e-08 M
CC(C)(c1cc(Cl)c(O)c(Cl)c1)c1cc(Cl)c(O)c(Cl)c1 [TCBPA, 2,2',6,6'-Tetrachlorobisphenol A]	0.89	7.84 × 10^–5 M	78.4 µM								EC10 (Tox21 assays [5]; [15]): 2.35e-07 M; EC10 (Tox21 assays [5]; [16]): 4e-07 M; EC10 (Tox21 assays [5]; [12]): 4.02e-07 M; REPBPA (Tox21 assays [6]; ATG_PPARg_TRANS_up, Relative Effect Potency): 6.78; SRbaseline (Tox21 assays [6]; ATG_PPARg_TRANS_up): 37.70; REPBPA (Tox21 assays [6]; ATG_hPPARg_XSP2_up, Relative Effect Potency): 3.23; SRbaseline (Tox21 assays [6]; ATG_hPPARg_XSP2_up): 22.19; SRbaseline (Tox21 assays [6]; [14]): 22.07
Cc1cc(Cc2cc(C)c(O)c(C)c2)cc(C)c1O [TMBPF, Bis(3,5-dimethyl-4-hydroxyphenyl)methane]	5.51	1.27 × 10^–5 M	12.7 µM	31%	0.69	58.94%	0.59	79.26%	0.79	56%	Cparent-Ratio Mean [2, 11]: 0.44; Cparent-Ratio Rep.1 [2, 11]: 0.29; Cparent-Ratio Rep.2 [2, 11]: 0.59
CC1(C)[C@H](O)C(C)(C)[C@H]1O [t-TMCD, trans-2,2,4,4-Tetramethyl-1,3-cyclobutanediol]	0.00783	8.94 × 10^–3 M	8940 µM	0.48%	1.00	90.48%	0.90	108.56%	1.09		
